Reference: patent US10000473B2, “Indazole derivatives useful as glucagon receptor antagonists” (Janssen Pharmaceutica NV, priority 2016, dated 2018)
Values joined by “and” are separate entries in the source; they are usually repeats but may differ in a detail not shown here. Identical values can stand only once.

tested on: GCG-mediated increases in blood glucose; assay: Glucagon challenge in vivo assay measuring blood glucose (normal dog glucagon challenge test); settings: 3 mg/kg oral gavage; fasted male beagle dogs; glucagon 5 μg/kg intramuscular 90 min after dosing
Description: Glucagon Challenge In Vivo Assay Measuring Blood Glucose
The efficacy of a glucagon receptor antagonist was evaluated using a normal dog glucagon challenge test. Male beagle dogs were overnight fasted prior to the study. Test compound (at 3 mg/kg and 10 mg/kg for Compound #196 and at 10 mg/kg for Compounds #180, #248 and #253) or vehicle (0.5% hydroxypropyl methylcellulose) was dosed via oral gavage. Ninety minutes later, the dogs (1.5 years old, ˜9 Kg) were submitted to a glucagon challenge test by a single intramuscular injection of glucagon (Glucagon, rDNA origin, Eli Lilly, Indianapolis, Ind.) at dose of 5 μg/kg. Blood glucose levels were determined at times −10 min, 0 min (on challenge), 10 min, 20 min, 30 min, and 60 min after glucagon injection.

Compound | inhibition of GCG-mediated increases in blood glucose vs vehicle [%]
Cc1cc2c(cnn2[C@@H](CC(C)C)c2ccc(C(=O)NCCC(=O)O)cc2)cc1-c1ccc(C(F)(F)F)cc1Cl [Compound #196, 3-[[4-[(1S)-1-[5-[2-Chloro-4-(trifluoromethyl)phenyl]-6-methyl-indazol-1-yl]-3-methyl-butyl]benzoyl]amino]propanoic acid] | 5.9

same assay, conditions: 10 mg/kg oral gavage; fasted male beagle dogs; glucagon 5 μg/kg intramuscular

Compound | blood glucose levels during glucagon challenge compared with vehicle treated group | duration of blood glucose reducing effect after glucagon injection
Cc1c(-c2ccc(C(F)(F)F)cc2Cl)ccc2nn([C@@H](CC(C)C)c3ccc(C(=O)NCCC(=O)O)cc3)cc12 [Compound #180, 3-[[4-[(1S)-1-[5-[2-Chloro-4-(trifluoromethyl)phenyl]-4-methyl-indazol-2-yl]-3-methyl-butyl]benzoyl]amino]propanoic acid] | markedly reduced blood glucose levels | more than 60 min

same assay, conditions: 10 mg/kg oral gavage; fasted male beagle dogs; glucagon 5 μg/kg intramuscular 90 min after dosing

Compound | inhibition of GCG-mediated increases in blood glucose vs vehicle [%]
Cc1cc(C(F)(F)F)ccc1-c1cc2cn([C@@H](CC(C)C)c3ccc(C(=O)NCCC(=O)O)cc3)nc2cc1C [Compound #248, 3-[[4-[(1 S)-3-Methyl-1-[6-methyl-5-[2-methyl-4-(trifluoromethyl)phenyl]indazol-2-yl]butyl]benzoyl]amino]propanoic acid] | 15
Cc1cc2c(cnn2[C@@H](CC(C)C)c2ccc(C(=O)NCCC(=O)O)cc2)cc1-c1ccc(C(F)(F)F)cc1Cl [Compound #196, 3-[[4-[(1S)-1-[5-[2-Chloro-4-(trifluoromethyl)phenyl]-6-methyl-indazol-1-yl]-3-methyl-butyl]benzoyl]amino]propanoic acid] | 23.9
Cc1c(-c2ccc(C(F)(F)F)cc2Cl)ccc2nn([C@@H](CC(C)C)c3ccc(C(=O)NCCC(=O)O)cc3)cc12 [Compound #180, 3-[[4-[(1S)-1-[5-[2-Chloro-4-(trifluoromethyl)phenyl]-4-methyl-indazol-2-yl]-3-methyl-butyl]benzoyl]amino]propanoic acid] | 28.9
Cc1cc(C(F)(F)F)ccc1-c1cc2cnn([C@@H](CC(C)C)c3ccc(C(=O)NCCC(=O)O)cc3)c2cc1C [Compound #253, 3-[[4-[(1S)-3-Methyl-1-[6-methyl-5-[2-methyl-4-(trifluoromethyl)phenyl]indazol-1-yl]butyl]benzoyl]amino]propanoic acid] | 17.1

target: T1, human GCGR (Homo sapiens, UniProt P47871); assay: Cellular functional assay, cAMP readout (glucagon-stimulated cAMP, LANCE TR-FRET); type: cell-based; settings: HEK293 cells stably expressing full-length human GCGR; glucagon 100 pM; IC50 converted to Ki; read-out: Inhibition of cAMP Ki
T1 construct: expressed in transfected cells; host or cells: HEK293 (hGluc-1HEK), pcDNA3.1, G418 selection
T1 sequence (P47871 26-477): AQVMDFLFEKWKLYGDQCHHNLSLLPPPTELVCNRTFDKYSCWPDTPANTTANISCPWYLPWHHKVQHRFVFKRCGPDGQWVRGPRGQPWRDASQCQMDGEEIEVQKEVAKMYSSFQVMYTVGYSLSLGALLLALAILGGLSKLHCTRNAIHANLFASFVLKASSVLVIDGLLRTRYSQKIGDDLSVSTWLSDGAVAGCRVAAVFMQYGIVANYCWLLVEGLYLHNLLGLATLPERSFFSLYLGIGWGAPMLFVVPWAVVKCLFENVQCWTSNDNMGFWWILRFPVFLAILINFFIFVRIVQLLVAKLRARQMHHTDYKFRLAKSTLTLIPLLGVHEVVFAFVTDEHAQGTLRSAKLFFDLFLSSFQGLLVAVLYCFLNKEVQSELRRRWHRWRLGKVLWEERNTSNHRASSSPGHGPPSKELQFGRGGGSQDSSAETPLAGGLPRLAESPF

Compound | Ki
Cc1cc(C(F)(F)F)ccc1-c1cc2cn([C@@H](CC(C)C)c3ccc(C(=O)NCCC(=O)O)cc3)nc2cc1C [Compound #248, 3-[[4-[(1 S)-3-Methyl-1-[6-methyl-5-[2-methyl-4-(trifluoromethyl)phenyl]indazol-2-yl]butyl]benzoyl]amino]propanoic acid] | 25 nM
Cc1cc2c(cnn2[C@@H](CC(C)C)c2ccc(C(=O)NCCC(=O)O)cc2)cc1-c1ccc(C(F)(F)F)cc1Cl [Compound #196, 3-[[4-[(1S)-1-[5-[2-Chloro-4-(trifluoromethyl)phenyl]-6-methyl-indazol-1-yl]-3-methyl-butyl]benzoyl]amino]propanoic acid] | 32 nM
Cc1c(-c2ccc(C(F)(F)F)cc2Cl)ccc2nn([C@@H](CC(C)C)c3ccc(C(=O)NCCC(=O)O)cc3)cc12 [Compound #180, 3-[[4-[(1S)-1-[5-[2-Chloro-4-(trifluoromethyl)phenyl]-4-methyl-indazol-2-yl]-3-methyl-butyl]benzoyl]amino]propanoic acid] | 25 nM (2×) and 20 nM
O=C(O)CCNC(=O)c1ccc(C(CC2CCCC2)n2cc3cc(-c4ccc(C(F)(F)F)cc4)ccc3n2)cn1 (stereo not shown) [compound 188] | 165 nM
Cc1c(-c2ccc(C(F)(F)F)c(Cl)c2)ccc2nn(C(CC(C)C)c3ccc(C(=O)NCCC(=O)O)cc3)cc12 (stereo not shown) [Compound #149, 3-(4-(1-(5-(3-Chloro-4-(trifluoromethyl)phenyl)-4-methyl-2H-indazol-2-yl)-3-methylbutyl)benzamido)propanoic acid] | 70 nM
CC(C)CC(c1ccc(C(=O)NCCC(=O)O)cc1)n1ncc2cc(-c3ccc(F)cc3)ccc21 (stereo not shown) [Compound #5] | 600 nM
Cc1cc(Cl)ccc1-c1cc2cnn(C(CC(C)C)c3ccc(C(=O)NCCC(=O)O)nc3)c2cc1Cl (stereo not shown) [Compound #102, 3-[[5-[1-[6-Chloro-5-(4-chloro-2-methyl-phenyl)indazol-1-yl]-3-methyl-butyl]pyridine-2-carbonyl]amino]propanoic acid] | 550 nM
CCOc1c(-c2ccc(C)cc2C)ccc2nn(C(CC(C)C)c3ccc(C(=O)NCCC(=O)O)nc3)cc12 (stereo not shown) [compound 182] | 70 nM
CC(C)CC(c1ccc(C(=O)NCCC(=O)O)cc1)n1ncc2cc(-c3ccc4ncccc4c3)ccc21 (stereo not shown) [Compound #7] | 800 nM
COc1c(-c2ccc(C(F)(F)F)cc2C)ccc2nn(C(CC(C)C)c3ccc(C(=O)NCCC(=O)O)cc3)cc12 (stereo not shown) [Compound #233, 3-(4-(1-(4-Methoxy-5-(2-methyl-4-(trifluoromethyl)phenyl)-2H-indazol-2-yl)-3-methylbutyl)benz-amido)propanoic acid] | 24 nM
O=C(O)CCNC(=O)c1ccc(C(CC2CC2)n2ncc3cc(-c4ccc(C(F)(F)F)cc4)ccc32)cc1 (stereo not shown) [compound 32] | 330 nM
Cc1cc(C(F)(F)F)ccc1-c1cc2cnn([C@@H](CC(C)C)c3ccc(C(=O)NCCC(=O)O)cc3)c2cc1C [Compound #253, 3-[[4-[(1S)-3-Methyl-1-[6-methyl-5-[2-methyl-4-(trifluoromethyl)phenyl]indazol-1-yl]butyl]benzoyl]amino]propanoic acid] | 14 nM
CC(C)(C)CC(c1ccc(C(=O)NCCC(=O)O)nc1)n1ncc2cc(-c3ccc(C(F)(F)F)cc3)ccc21 (stereo not shown) [compound 237] | 160 nM
Cc1cc(Cl)ccc1-c1ccc2c(cnn2C(CCC2CCCCC2)c2ccc(C(=O)NCCC(=O)O)cc2)c1 (stereo not shown) [compound 157] | 250 nM
Cc1cc(Cl)ccc1-c1ccc2nn(C(CCC(F)(F)F)c3ccc(C(=O)NCCC(=O)O)cc3)cc2c1 (stereo not shown) [Compound #8, 3-[[4-[1-[5-(4-Chloro-2-methyl-phenyl)indazol-2-yl]-4,4,4-trifluorobutyl]benzoyl]amino]propanoic acid] | 59 nM
Cc1cc(Cl)ccc1-c1ccc2nn(C(CC(C)(C)C)c3ccc(C(=O)NCCC(=O)O)nc3)cc2c1 (stereo not shown) [compound 257] | 26 nM
Cc1cc(Cl)ccc1-c1ccc2c(cnn2C(CC(C)C)c2ccc(C(=O)NCCC(=O)O)nc2)c1 (stereo not shown) [Compound #14, 3-(5-(1-(5-(4-Chloro-2-methylphenyl)-1H-indazol-1-yl)-3-methylbutyl)picolinamido)propanoic acid] | 447 nM
COc1c(-c2ccc(C(F)(F)F)cc2Cl)ccc2nn(C(CC(C)C)c3ccc(C(=O)NCCC(=O)O)cc3)cc12 (stereo not shown) [Compound #137, 3-(4-(1-(5-(2-Chloro-4-(trifluoromethyl)phenyl)-4-methoxy-2H-indazol-2-yl)-3-methylbutyl)benzamido)propanoic acid] | 22 nM
CC(C)CC(c1ccc(C(=O)NCCC(=O)O)cc1)n1ncc2cc(-c3ccc(C(C)(C)C)cc3)ccc21 (single isomer, unassigned) [Compound #37] | 62 nM and 130 nM
CCCCCCC(c1ccc(C(=O)NCCC(=O)O)cc1)n1ncc2cc(-c3ccc(C(C)(C)C)cc3)ccc21 (stereo not shown) [compound 128] | 199 nM
O=C(O)CCNC(=O)c1ccc(C(CC2CCCC2)n2cc3cc(-c4ccc(C(F)(F)F)cc4)ccc3n2)cc1 (stereo not shown) [compound 254] | 90 nM

The next lines start with the values.

Ki | Compound
1100 nM | CC(C)CC(c1ccc(C(=O)NCCC(=O)O)cc1)n1ncc2cc(-c3ccccc3)ccc21 (stereo not shown) [Compound #4]
140 nM | O=C(O)CCNC(=O)c1ccc(C(CCC(F)(F)F)n2ncc3cc(-c4cc5ccccc5s4)ccc32)cc1 (stereo not shown) [Compound #115, 3-[[4-[1-[5-(Benzothiophen-2-yl)indazol-1-yl]-4,4,4-trifluorobutyl]benzoyl]amino]propanoic acid]
200 nM | O=C(O)CCNC(=O)c1ccc(C(CC2CC2)n2cc3cc(-c4ccc(C(F)(F)F)cc4)ccc3n2)cc1 (stereo not shown) [compound 139]
> 5200 nM | CC(C)CC(c1ccc(C(=O)NCCC(=O)O)nc1)n1cc2c(C(F)(F)F)c(-c3ccc(C(F)(F)F)cc3Cl)ccc2n1 (stereo not shown) [compound 235]
410 nM | O=C(O)CCNC(=O)c1ccc(C(CCC(F)(F)F)n2ncc3cc(-c4ccc(Cl)cc4Cl)ccc32)cc1 (stereo not shown) [Compound #112, 3-[[4-[1-[5-(2,4-Dichlorophenyl)indazol-1-yl]-4,4,4-trifluorobutyl]benzoyl]amino]propanoic acid]
133 nM | CCCCCC(c1ccc(C(=O)NCCC(=O)O)cc1)n1cc2cc(-c3ccc(C(F)(F)F)cc3)ccc2n1 (stereo not shown) [compound 171]
200 nM | CCCCCCC(c1ccc(C(=O)NCCC(=O)O)nc1)n1ncc2cc(-c3ccc(Cl)cc3C)ccc21 (stereo not shown) [compound 244]
650 nM | CC(C)CC(c1ccc(C(=O)NCCC(=O)O)nc1)n1ncc2cc(-c3ccc(OC(F)(F)F)cc3)ccc21 (stereo not shown) [Compound #114, 3-(5-(3-Methyl-1-(5-(4-(trifluoromethoxy)phenyl)-1H-indazol-1-yl)butyl)picolinamido)propanoic acid]
25 nM | Cc1c(-c2ccc(Cl)cc2Cl)ccc2nn(C(CC(C)C)c3ccc(C(=O)NCCC(=O)O)cc3)cc12 (stereo not shown) [Compound #190, 3-(4-(1-(5-(2,4-Dichlorophenyl)-4-methyl-2H-indazol-2-yl)-3-methylbutyl)benzamido)propanoic acid]
190 nM | CC(C)CC(c1ccc(C(=O)NCCC(=O)O)cc1)n1ncc2cc(-c3ccc4ccccc4c3)ccc21 (stereo not shown) [compound 71]
280 nM | Cc1ccc2sc(-c3ccc4c(cnn4C(CC(C)C)c4ccc(C(=O)NCCC(=O)O)cc4)c3)cc2c1 (stereo not shown) [compound 230]
700 nM | CC(C)CC(c1ccc(C(=O)NCCC(=O)O)cc1)n1cc2cc(-c3ccc4ncccc4c3)ccc2n1 (stereo not shown) [compound 121]
44 nM | Cc1cc(C(F)(F)F)ccc1-c1cc2cn(C(CC(C)C)c3ccc(C(=O)NCCC(=O)O)cc3)nc2cc1Cl (stereo not shown) [Compound #30, 3-[[4-[1-[6-Chloro-5-[2-methyl-4-(trifluoromethyl)phenyl]indazol-2-yl]-3-methyl-butyl]benzoyl]amino]propanoic acid]
155 nM | CCCCCCC(c1ccc(C(=O)NCCC(=O)O)cc1)n1ncc2cc(-c3ccc(C(F)(F)F)cc3)ccc21 (stereo not shown) [compound 159]
1850 nM | COc1c(-c2ccc(C(F)(F)F)cc2C)ccc2c1cnn2[C@H](CC(C)C)c1ccc(C(=O)NCCC(=O)O)cc1 [compound 145, (R)-3-(4-(1-(4-Methoxy-5-(2-methyl-4-(trifluoromethyl)phenyl)-1H-indazol-1-yl)-3-methylbutyl)benzamido)propanoic acid]
